This is an account of results in ChEMBL document CHEMBL5252660 (ACS Med Chem Lett, 2023).

Data set [1] deals with SNU-16. The data set can be described thus: cells. The settings on record: Homo sapiens, SNU-16, 72 h.
Description: Cytotoxicity against human SNU-16 cells assessed as inhibition of cell growth measured after 72 hrs by cell titer glo assay
The subject of data set [2] is SNU1. The data set can be described thus: cells. Particulars: Homo sapiens, SNU1, 72 h.
Description: Cytotoxicity against human SNU1 cells assessed as inhibition of cell growth measured after 72 hrs by cell titer glo assay
The target of data set [3] is Fibroblast growth factor receptor 2 (Homo sapiens, UniProt P21802).
Description: Inhibition of human recombinant cytoplasmic domain FGFR2 (8 to 134 residues) incubated for 120 mins by mobility shift assay
The target in data set [4] is Epidermal growth factor receptor (Homo sapiens, UniProt P00533, EX19DEL/T790M). The data set can be described thus: Inhibition of recombinant human EGFR del19/T790M using biotinEEPLYWSFPAKKK-NH2 as substrate incubated for 120 mins by TR-FRET assay. (Time-resolved FRET reads energy transfer from a long-lived donor to a nearby acceptor.)
The target in data set [5] is Vascular endothelial growth factor receptor 2 (Homo sapiens, UniProt P35968).
Description: Inhibition of N-terminal GST tagged recombinant human VEGFR2 (aa805 to 1356 residues) expressed in baculovirus expression system using Poly- (Glu4:Tyr)-biotin as substrate incubated for 80 mins in presence of ATP by kinase glo method
The nature of data set [6]: Microsomal stability in human liver microsomes assessed as parent compound remaining measured after 30 mins in presence of NADPH generating system by LC-MS analysis. In kind it is ADME, Microsome. The settings on record: read-out: Stability. A general note: Liver microsomes are a subcellular fraction often used to study metabolism.
A short description of data set [7]: Microsomal stability in mouse liver microsomes assessed as parent compound remaining measured after 30 mins in presence of NADPH generating system by LC-MS analysis. The settings on record: read-out: Stability. In kind it is ADME, Microsome.
Data set [8] in a line: Drug exposure in BALB/cA mouse assessed as AUC(0 to 6 hrs) of drug at 50 mg/kg, po measured after 6 hrs by LC-MS analysis. The settings on record: in vivo. In kind it is ADME, organism-based. The arrangement: dose 50 mg/kg, time 6 hrs, route po.
Data set [9] in a line: Lipophilicity, logD of the compound at pH 7.4. In kind it is physicochemical. Particulars: buffer.
For data set [10], the target named is Fibroblast growth factor receptor 1 (Homo sapiens) (UniProt P11362). The data set can be described thus: Inhibition of partial length wild type human FGFR1 (P357 to V669 residues) expressed in bacterial expression system at 100 uM by Kinome scan method relative to control.
Data set [11] deals with Fibroblast growth factor receptor 3 (Homo sapiens) (UniProt P22607). Nature of the data set: Inhibition of wild type human partial length FGFR3 (R442 to S771 residues) expressed in bacterial expression system at 100 uM by Kinome scan method relative to control.
For data set [12], the target named is T1, Mitogen-activated protein kinase 12 (Homo sapiens) (UniProt P53778).
T1 sequence (whole entry): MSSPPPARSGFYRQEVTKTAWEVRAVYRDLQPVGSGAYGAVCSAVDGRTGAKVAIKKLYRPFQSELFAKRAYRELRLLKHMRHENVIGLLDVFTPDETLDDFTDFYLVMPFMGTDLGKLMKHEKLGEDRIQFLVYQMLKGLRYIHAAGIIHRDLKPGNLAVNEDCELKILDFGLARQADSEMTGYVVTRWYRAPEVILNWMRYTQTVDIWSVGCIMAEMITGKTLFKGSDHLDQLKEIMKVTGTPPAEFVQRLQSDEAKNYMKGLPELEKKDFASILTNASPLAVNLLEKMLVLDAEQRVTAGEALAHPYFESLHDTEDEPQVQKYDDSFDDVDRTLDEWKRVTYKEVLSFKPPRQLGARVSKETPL
Nature of the data set: Inhibition of human full length wild type MAPK12 (M1 to L367 residues) expressed in mammalian expression system at 100 uM by Kinome scan method relative to control.

The target of data set [13] is Insulin receptor (Homo sapiens) (UniProt P06213). The data set can be described thus: Inhibition of human wild type partial length INSR (P997 to E1318 resides) expressed in mammalian expression system at 100 uM by Kinome scan method relative to control.

The structures appear in SMILES notation.

One may read the IC50 as the concentration needed to halve the response being measured. The term AUC(0-t) denotes exposure summed from dosing to a finite time, without extrapolation to infinity. Broadly, the logD is lipophilicity at a set pH, counting ionised and neutral species. Low readings indicate lower lipophilicity, high ones higher lipophilicity. A word on the inhibition: it is the share of the control response that was lost under treatment.

Epidermal growth factor receptor, sequence (P00533 whole entry, looked up, stated change not applied): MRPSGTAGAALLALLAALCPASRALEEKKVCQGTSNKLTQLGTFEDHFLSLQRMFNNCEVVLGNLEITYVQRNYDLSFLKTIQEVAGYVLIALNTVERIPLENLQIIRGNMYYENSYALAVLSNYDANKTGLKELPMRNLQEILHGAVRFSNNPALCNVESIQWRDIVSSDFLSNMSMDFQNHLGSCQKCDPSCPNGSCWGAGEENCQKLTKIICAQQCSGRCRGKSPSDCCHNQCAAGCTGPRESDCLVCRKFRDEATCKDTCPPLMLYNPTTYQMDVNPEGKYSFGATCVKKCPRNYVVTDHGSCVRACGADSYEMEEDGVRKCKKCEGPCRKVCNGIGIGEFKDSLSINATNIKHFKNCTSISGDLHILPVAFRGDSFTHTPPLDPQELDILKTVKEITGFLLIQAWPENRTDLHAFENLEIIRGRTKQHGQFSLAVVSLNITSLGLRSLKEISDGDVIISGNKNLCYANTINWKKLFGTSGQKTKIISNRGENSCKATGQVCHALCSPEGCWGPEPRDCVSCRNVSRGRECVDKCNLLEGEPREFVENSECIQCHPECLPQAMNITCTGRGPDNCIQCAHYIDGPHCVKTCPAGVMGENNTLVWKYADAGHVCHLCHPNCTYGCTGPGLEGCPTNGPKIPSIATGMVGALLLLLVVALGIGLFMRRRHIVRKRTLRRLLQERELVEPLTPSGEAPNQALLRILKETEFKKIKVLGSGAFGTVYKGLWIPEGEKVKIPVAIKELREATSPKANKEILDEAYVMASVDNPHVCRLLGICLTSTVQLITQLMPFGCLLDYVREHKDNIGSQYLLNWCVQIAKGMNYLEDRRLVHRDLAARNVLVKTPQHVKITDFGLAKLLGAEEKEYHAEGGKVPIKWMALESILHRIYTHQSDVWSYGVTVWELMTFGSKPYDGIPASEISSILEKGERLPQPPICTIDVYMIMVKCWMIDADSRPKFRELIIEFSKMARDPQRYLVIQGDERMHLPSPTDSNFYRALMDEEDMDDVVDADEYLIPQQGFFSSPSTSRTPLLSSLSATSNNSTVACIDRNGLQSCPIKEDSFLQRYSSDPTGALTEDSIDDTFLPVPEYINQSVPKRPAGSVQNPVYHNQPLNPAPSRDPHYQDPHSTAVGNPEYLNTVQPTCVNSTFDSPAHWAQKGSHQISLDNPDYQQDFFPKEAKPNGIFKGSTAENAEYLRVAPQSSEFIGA
Fibroblast growth factor receptor 2, sequence (P21802 whole entry): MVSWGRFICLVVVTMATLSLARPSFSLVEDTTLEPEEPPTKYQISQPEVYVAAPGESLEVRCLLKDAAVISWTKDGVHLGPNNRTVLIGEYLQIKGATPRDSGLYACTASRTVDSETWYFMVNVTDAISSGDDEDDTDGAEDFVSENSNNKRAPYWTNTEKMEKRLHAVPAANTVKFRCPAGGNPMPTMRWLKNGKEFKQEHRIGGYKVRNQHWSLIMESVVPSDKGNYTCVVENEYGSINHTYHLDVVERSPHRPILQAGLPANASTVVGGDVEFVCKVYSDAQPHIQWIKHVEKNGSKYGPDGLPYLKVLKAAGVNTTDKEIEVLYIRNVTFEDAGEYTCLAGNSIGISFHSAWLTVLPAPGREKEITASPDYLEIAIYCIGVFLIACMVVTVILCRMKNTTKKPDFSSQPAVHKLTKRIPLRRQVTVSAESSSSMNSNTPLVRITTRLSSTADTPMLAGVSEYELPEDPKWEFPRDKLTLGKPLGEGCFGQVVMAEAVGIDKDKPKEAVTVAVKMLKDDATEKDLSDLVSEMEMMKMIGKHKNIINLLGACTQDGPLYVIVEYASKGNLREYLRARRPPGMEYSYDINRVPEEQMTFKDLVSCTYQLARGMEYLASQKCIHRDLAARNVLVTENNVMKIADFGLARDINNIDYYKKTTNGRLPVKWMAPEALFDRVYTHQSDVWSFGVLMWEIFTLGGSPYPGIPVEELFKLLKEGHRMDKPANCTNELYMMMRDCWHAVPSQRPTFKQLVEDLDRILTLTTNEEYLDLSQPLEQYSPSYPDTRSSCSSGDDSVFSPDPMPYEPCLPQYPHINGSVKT
Vascular endothelial growth factor receptor 2, sequence (P35968 whole entry): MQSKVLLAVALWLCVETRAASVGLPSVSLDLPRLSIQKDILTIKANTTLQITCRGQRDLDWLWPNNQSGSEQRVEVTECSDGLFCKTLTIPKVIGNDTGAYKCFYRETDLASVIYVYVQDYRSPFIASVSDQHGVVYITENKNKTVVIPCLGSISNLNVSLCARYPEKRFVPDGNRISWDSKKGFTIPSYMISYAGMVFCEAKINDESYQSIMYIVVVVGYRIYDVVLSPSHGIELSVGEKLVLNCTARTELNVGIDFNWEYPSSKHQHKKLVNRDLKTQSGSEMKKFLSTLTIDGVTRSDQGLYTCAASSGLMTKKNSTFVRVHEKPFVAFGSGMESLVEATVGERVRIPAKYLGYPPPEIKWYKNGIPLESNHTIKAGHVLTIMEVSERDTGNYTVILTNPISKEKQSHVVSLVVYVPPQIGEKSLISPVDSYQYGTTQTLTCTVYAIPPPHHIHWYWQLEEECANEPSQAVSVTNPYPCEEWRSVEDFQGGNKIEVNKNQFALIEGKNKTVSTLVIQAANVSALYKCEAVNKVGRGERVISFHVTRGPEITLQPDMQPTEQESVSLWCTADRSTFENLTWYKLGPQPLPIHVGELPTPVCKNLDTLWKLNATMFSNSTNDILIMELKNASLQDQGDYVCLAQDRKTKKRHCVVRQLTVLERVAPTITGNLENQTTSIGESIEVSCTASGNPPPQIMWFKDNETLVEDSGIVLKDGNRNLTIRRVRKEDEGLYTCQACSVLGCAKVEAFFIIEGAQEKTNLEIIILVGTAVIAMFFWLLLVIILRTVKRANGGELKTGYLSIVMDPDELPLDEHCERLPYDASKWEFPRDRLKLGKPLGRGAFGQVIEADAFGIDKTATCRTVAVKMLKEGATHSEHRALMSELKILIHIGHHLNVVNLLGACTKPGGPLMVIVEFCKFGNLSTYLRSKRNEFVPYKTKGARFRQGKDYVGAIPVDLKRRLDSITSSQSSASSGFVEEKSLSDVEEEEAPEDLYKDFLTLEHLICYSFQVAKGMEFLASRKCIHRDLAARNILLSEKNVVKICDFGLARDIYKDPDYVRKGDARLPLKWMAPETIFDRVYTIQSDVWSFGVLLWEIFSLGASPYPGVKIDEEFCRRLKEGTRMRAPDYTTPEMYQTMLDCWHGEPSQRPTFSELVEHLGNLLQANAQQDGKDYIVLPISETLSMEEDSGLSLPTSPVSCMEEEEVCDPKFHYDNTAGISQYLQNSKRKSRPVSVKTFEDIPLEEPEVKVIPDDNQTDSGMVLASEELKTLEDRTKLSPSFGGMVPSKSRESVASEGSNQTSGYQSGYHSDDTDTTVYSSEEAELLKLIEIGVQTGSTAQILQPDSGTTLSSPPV
Insulin receptor (Homo sapiens), sequence (P06213 28-758 limits assumed): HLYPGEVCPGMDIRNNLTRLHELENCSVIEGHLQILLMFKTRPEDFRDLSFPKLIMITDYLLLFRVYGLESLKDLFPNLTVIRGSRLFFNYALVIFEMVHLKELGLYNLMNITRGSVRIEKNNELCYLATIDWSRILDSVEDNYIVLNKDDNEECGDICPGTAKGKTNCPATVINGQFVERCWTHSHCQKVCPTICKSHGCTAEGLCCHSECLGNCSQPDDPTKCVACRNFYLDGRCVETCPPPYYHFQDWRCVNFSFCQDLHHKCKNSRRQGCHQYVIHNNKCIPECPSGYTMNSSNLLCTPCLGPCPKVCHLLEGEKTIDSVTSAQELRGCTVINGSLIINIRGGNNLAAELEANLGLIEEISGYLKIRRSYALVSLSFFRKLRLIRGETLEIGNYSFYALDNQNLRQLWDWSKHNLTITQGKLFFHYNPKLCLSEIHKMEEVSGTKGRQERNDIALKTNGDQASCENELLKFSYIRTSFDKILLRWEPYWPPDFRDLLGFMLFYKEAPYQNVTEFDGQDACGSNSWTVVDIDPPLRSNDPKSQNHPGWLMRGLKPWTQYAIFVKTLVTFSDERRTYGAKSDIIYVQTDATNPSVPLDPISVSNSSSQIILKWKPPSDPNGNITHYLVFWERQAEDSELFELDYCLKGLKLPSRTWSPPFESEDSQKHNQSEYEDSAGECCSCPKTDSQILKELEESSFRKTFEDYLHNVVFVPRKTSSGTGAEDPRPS
Insulin receptor (Homo sapiens), sequence (P06213 763-1382 limits assumed): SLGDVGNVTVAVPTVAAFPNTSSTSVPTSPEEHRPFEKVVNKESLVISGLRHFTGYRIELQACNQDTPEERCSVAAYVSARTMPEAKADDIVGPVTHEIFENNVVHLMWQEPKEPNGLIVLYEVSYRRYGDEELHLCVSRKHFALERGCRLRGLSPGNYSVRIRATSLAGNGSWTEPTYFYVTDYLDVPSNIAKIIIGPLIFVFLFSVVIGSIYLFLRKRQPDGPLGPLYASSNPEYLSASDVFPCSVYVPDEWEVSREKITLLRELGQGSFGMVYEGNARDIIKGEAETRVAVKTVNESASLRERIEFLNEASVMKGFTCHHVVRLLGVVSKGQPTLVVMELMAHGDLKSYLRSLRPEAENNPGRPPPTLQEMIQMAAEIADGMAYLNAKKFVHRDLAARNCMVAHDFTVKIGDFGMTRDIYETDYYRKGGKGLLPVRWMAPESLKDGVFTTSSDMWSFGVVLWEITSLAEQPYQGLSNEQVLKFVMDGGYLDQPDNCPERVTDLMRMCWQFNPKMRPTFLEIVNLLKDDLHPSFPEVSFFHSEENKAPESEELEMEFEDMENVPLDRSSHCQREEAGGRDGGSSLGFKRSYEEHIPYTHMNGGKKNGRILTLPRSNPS

On to `C=CC(=O)N1CC(Cn2nc(C#Cc3cc(OC)cc(OC)c3)c3c(N)ncnc32)C1`, for which the concentration for half-maximal inhibition (IC50) is 32 nM in data set [1] and > 5000 nM in data set [2].
With `C=CC(=O)N1CC[C@H](n2cc(-c3cnc4ccccc4c3)c3c(N)ncnc32)C1`, the IC50 in data set [3] came out at 17 nM; in data set [4], 111 nM.
In the case of `C=CC(=O)N1CCC(n2cc(-c3cnc4ccccc4c3)c3c(N)ncnc32)C1` (racemic), the IC50 in data set [3] is 57 nM; in data set [4], 1.2 nM.
Take `C=CC(=O)N1CC[C@H](n2nc(C#Cc3cc(OC)cc(OC)c3)c3c(N)ncnc32)C1` [FUTIBATINIB]: the IC50 in [4] is > 5000 nM; in [5] it was 2360 nM; in data set [1] it was 3.7 nM; in [2], > 5000 nM. Further, the remaining at 0.5 h in data set [6] turned out to be 66%; in data set [7] it was 69%. In data set [8], the area under the curve AUC(0-t) at 6 h was determined as 23.9 µM·h. Also, in data set [9], the log distribution coefficient (logD) was found to be 3.4. Also, the inhibition in data set [10] was 99.1%; in data set [11], 97.8%; in data set [12], 69%; in [13], 55%.
For `COc1cc(C#Cc2nn([C@H]3CCN(C(=O)/C=C/CN(C)C)C3)c3ncnc(N)c23)cc(OC)c1`, the half-inhibitory concentration (IC50) was 43 nM in data set [1] and > 5000 nM in data set [2].
As for `C=CC(=O)N1CC[C@H](n2nc(-c3cnc4ccccc4c3)c3c(N)ncnc32)C1`, the IC50 in data set [3] was 255 nM; in data set [4] it was 741 nM.
Take `C=CC(=O)N1CCC(n2nc(C#Cc3cc(OC)cc(OC)c3)c3c(N)ncnc32)CC1`: the half-inhibitory concentration (IC50) in data set [1] was 33 nM; in data set [2] it was > 5000 nM.
Consider `C=CC(=O)N1CC[C@@H](n2cc(-c3cnc4ccccc4c3)c3c(N)ncnc32)C1`, for which the figures for the IC50 in [3] and in data set [4] were 313 nM and 0.4 nM, respectively.
`CCC(=O)N1CC[C@H](n2nc(C#Cc3cc(OC)cc(OC)c3)c3c(N)ncnc32)C1`: the IC50 in data set [4] is > 5000 nM; in [1] it was 1420 nM; in data set [2], > 5000 nM.
`COc1cc(C#Cc2nn(C3CN(C(=O)/C=C/CN(C)C)C3)c3ncnc(N)c23)cc(OC)c1`: the remaining at 0.5 h in data set [6] came out at 77%; in data set [7], 98%. In addition, the exposure AUC(0-t) at 6 h in data set [8] turned out to be 1.27 µM·h. This compound registered a logD in [9] of 2.3. For the same compound, the half-inhibitory concentration (IC50) in data set [1] was 8.4 nM; in data set [2], > 5000 nM.
Take `C=CC(=O)N1CC[C@H](n2nc(C(=O)Nc3cc(OC)cc(OC)c3)c3c(N)ncnc32)C1`: the IC50 in [3] is 670 nM; in data set [4] it was > 5000 nM.
As for `C=CC(=O)N1CC[C@@H](n2nc(-c3cnc4ccccc4c3)c3c(N)ncnc32)C1`, the figures for the IC50 in data set [3] and in data set [4] were 2260 nM and 5.4 nM, respectively.
In the case of `C=CC(=O)N1CC[C@H](n2nc(CCc3cc(OC)cc(OC)c3)c3c(N)ncnc32)C1`, the half-inhibitory concentration (IC50) in data set [3] is 239 nM; in data set [4], > 5000 nM.
In the case of `C=CC(=O)N1CC[C@@H](n2nc(C#Cc3cc(OC)cc(OC)c3)c3c(N)ncnc32)C1`, the IC50 in data set [5] is 1490 nM; in data set [1], 113 nM; in [2], > 5000 nM.
Consider `C=CC(=O)NCCn1nc(C#Cc2cc(OC)cc(OC)c2)c2c(N)ncnc21`, for which the IC50 in data set [1] is 362 nM; in [2], > 5000 nM.
In the case of `C=CC(=O)N1CC(n2nc(C#Cc3cc(OC)cc(OC)c3)c3c(N)ncnc32)C1`, the remaining at 0.5 h in [6] was determined as 83%; in data set [7] it was 92%. Further, the AUC(0-t) at 6 h in [8] was 0.07 µM·h. The compound also displayed a logD in [9] of 3. Moreover, the half-inhibitory concentration (IC50) in [1] was 7.4 nM; in data set [2], > 5000 nM.
On to `C=CC(=O)N1CC[C@H](n2nc(-c3cc(OC)cc(OC)c3)c3c(N)ncnc32)C1`, for which the IC50 in data set [4] is > 5000 nM.
